The values that follow come from US12612384B2, “Heterocyclic CYP4A inhibitor compounds and compositions thereof” (MBD CO., LTD., priority 2021, dated 2026).

For orientation: inhibition means the share of the control response that was lost under treatment.

SMILES strings stand for the structures.

The target in one experiment is T1, CYP4A (Homo sapiens, UniProt Q02928).
T1 construct: purchased; host or cells: bacterial membranes ('bactosome')
T1 sequence (Q02928 5-519): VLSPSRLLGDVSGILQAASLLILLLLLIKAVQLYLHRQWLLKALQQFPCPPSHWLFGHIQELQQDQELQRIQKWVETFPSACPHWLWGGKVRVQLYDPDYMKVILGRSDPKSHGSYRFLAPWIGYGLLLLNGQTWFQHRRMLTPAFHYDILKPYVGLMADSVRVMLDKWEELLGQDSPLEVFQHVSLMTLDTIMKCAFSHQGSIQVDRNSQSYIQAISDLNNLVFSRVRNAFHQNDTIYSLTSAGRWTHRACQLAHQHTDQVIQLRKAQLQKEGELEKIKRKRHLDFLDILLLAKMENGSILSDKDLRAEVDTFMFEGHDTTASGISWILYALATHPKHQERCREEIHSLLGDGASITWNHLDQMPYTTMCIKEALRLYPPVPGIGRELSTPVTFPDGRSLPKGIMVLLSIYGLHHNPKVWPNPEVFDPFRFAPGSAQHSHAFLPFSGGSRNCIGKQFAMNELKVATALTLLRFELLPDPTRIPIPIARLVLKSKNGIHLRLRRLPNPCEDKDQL
The experiment in a line: CYP4A enzyme assay (luminescence, Luciferin-ME). The experiment is classed as biochemical. The note with it: Compound concentration 5 μM; 70%-90%; read-out: % Inhibition 70%-90%. Summed up: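 Compounds (5 μM) were preincubated 15 min at room temperature with CYP4A bactosomes in 100 mM KPO4, 0.1% BSA, 1 mM DTT. Reaction ran 30 min at room temperature after adding 5 mM Luciferin-ME and NADPH regeneration system. Luminescence after 15 min with detection reagent; inhibition judged by comparing well signals.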
For the molecule `O=C(C1CCN(Cc2nnn[nH]2)C1)N1CCN(c2ccnc3cc(F)ccc23)CC1` (stereo not drawn) [Example 155, (1-((1H-tetrazol-5-yl)methyl)pyrrolidin-3-yl)(4-(7-fluoroquinolin-4-yl)piperazin-1-yl)methanone], the inhibition at 5 µM was in the range of 70 to 90%.

On to `Cc1ccc2c(N3CCN(C(=O)[C@H]4CCN(S(=O)(=O)c5ncn[nH]5)C4)CC3)ccnc2c1` [Example 163, (S)-(1-((1H-1,2,4-triazol-5-yl)sulfonyl)pyrrolidin-3-yl)(4-(7-methylquinolin-4-yl)piperazin-1-yl)methanone], for which the inhibition at 5 µM was 70 to 90%.

Regarding `O=C([C@H]1CCN(S(=O)(=O)c2ncn[nH]2)C1)N1CCN(c2cc(C(F)(F)F)nc3ccccc23)CC1` [Example 167, (S)-(1-((1H-1,2,4-triazol-5-yl)sulfonyl)pyrrolidin-3-yl)(4-(2-(trifluoromethyl)quinolin-4-yl)piperazin-1-yl)methanone], the inhibition at 5 µM fell in the range of 70 to 90%.

The same experiment, now with this note: Compound concentration 5 μM; Greater than 90%; read-out: % Inhibition Greater than 90%.
`O=C([C@H]1CCN(S(=O)(=O)c2cccnc2)C1)N1CCN(c2ccnc3cc(F)ccc23)CC1` [Example 156, (S)-(4-(7-fluoroquinolin-4-yl)piperazin-1-yl)(1-(pyridin-3-ylsulfonyl)pyrrolidin-3-yl)methanone]: the inhibition at 5 µM was more than 90%.

For `O=C([C@H]1CCN(S(=O)(=O)c2ccccn2)C1)N1CCN(c2ccnc3cc(F)ccc23)CC1` [Example 157, (S)-(4-(7-fluoroquinolin-4-yl)piperazin-1-yl)(1-(pyridin-2-ylsulfonyl)pyrrolidin-3-yl)methanone], the inhibition at 5 µM is more than 90%.

As for `O=C([C@H]1CCN(S(=O)(=O)c2ccc([N+](=O)[O-])cc2)C1)N1CCN(c2ccnc3cc(F)ccc23)CC1` [Example 158, (S)-(4-(7-fluoroquinolin-4-yl)piperazin-1-yl)(1-((4-nitrophenyl)sulfonyl)pyrrolidin-3-yl)methanone], the inhibition at 5 µM was more than 90%.

As for `O=C([C@H]1CCN(S(=O)(=O)c2ncc[nH]2)C1)N1CCN(c2ccnc3ccc(F)cc23)CC1` [Example 159, (S)-(1-((1H-imidazol-2-yl)sulfonyl)pyrrolidin-3-yl)(4-(6-fluoroquinolin-4-yl)piperazin-1-yl)methanone], the inhibition at 5 µM is more than 90%.

For the molecule `O=C([C@H]1CCN(S(=O)(=O)c2nccn2CCO)C1)N1CCN(c2ccnc3ccc(F)cc23)CC1` [Example 160, (S)-(4-(6-fluoroquinolin-4-yl)piperazin-1-yl)(1-((1-(2-hydroxyethyl)-1H-imidazol-2-yl)sulfonyl)pyrrolidin-3-yl)methanone], the inhibition at 5 µM was more than 90%.

`O=C(c1ncn[nH]1)N1CC[C@H](C(=O)N2CCN(c3ccnc4cc(F)ccc34)CC2)C1` [Example 161, (S)-(1-(4H-1,2,4-triazole-3-carbonyl)pyrrolidin-3-yl)(4-(7-fluoroquinolin-4-yl)piperazin-1-yl)methanone]: the inhibition at 5 µM is more than 90%.

On to `O=C(c1nn[nH]n1)N1CC[C@H](C(=O)N2CCN(c3ccnc4cc(F)ccc34)CC2)C1` [Example 162, (S)-(1-(2H-tetrazole-5-carbonyl)pyrrolidin-3-yl)(4-(7-fluoroquinolin-4-yl)piperazin-1-yl)methanone], for which the inhibition at 5 µM is more than 90%.

Consider `O=C([C@H]1CCN(S(=O)(=O)c2ncn[nH]2)C1)N1CCN(c2ccnc3cc(O)ccc23)CC1` [Example 164, (S)-(1-((1H-1,2,4-triazol-5-yl)sulfonyl)pyrrolidin-3-yl)(4-(7-hydroxyquinolin-4-yl)piperazin-1-yl)methanone], for which the inhibition at 5 µM is more than 90%.

For the molecule `COc1ccc2c(N3CCN(C(=O)[C@H]4CCN(S(=O)(=O)c5ncn[nH]5)C4)CC3)ccnc2c1` [Example 165, (S)-(1-((1H-1,2,4-triazol-5-yl)sulfonyl)pyrrolidin-3-yl)(4-(7-methoxyquinolin-4-yl)piperazin-1-yl)methanone], the inhibition at 5 µM was more than 90%.

With `Cc1nc(S(=O)(=O)N2CC[C@H](C(=O)N3CCN(c4ccnc5cc(F)ccc45)CC3)C2)n[nH]1` [Example 166, (S)-(4-(7-fluoroquinolin-4-yl)piperazin-1-yl)(1-((5-methyl-1H-1,2,4-triazol-3-yl)sulfonyl)pyrrolidin-3-yl)methanone], the inhibition at 5 µM was more than 90%.

As for `O=C([C@H]1CCN(S(=O)(=O)c2ncn[nH]2)C1)N1CCN(c2ccnc3cc(F)c(F)cc23)CC1` [Example 168, (S)-(1-((1H-1,2,4-triazol-5-yl)sulfonyl)pyrrolidin-3-yl)(4-(6,7-difluoroquinolin-4-yl)piperazin-1-yl)methanone], the inhibition at 5 µM is more than 90%.

Turning to `O=C([C@H]1CCN(S(=O)(=O)c2ncc[nH]2)C1)N1CCN(c2ccnc3cc(F)c(F)cc23)CC1` [Example 169, (S)-(1-((1H-imidazol-2-yl)sulfonyl)pyrrolidin-3-yl)(4-(6,7-difluoroquinolin-4-yl)piperazin-1-yl)methanone], the inhibition at 5 µM is more than 90%.
